Reference: PubChem BioAssay AID1845200 (Molecular Pharmacology Branch, DTP, NCI, 2023)
Active and inactive are the calls of the source. How the source made its calls: active means viability on the fitted dose curve at most 10% of control; inactive means the rest.

Tested on: ASPS-1 complex tumor spheroids, viability
Assay: Anticancer human tumor ASPS-1 cell line growth inhibition;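 further: spheroids exposed to agents for 7 days after 3 days of growth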;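 on viability, T/C: 100% = DMSO vehicle treated spheroids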
Details: for IC50: curve of first compound; for viability, T/C: stronger effect = lower value
How it was run: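 Complex spheroids of malignant cells with endothelial cells and mesenchymal stem cells; agents alone or combined, from near clinical Cmax (or 10 microM if unknown) down in half-log steps, 0.25% DMSO final.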

[1] = second compound 1 µM, first compound 0.0949 µM
[2] = second compound 1 µM, first compound 0.3 µM
[3] = second compound 1 µM, first compound 0.949 µM
[4] = second compound 1 µM, first compound 3 µM
[5] = second compound 3.16 µM, first compound 0.0949 µM
[6] = second compound 3.16 µM, first compound 0.3 µM
[7] = second compound 3.16 µM, first compound 0.949 µM
[8] = second compound 3.16 µM, first compound 3 µM
[9] = second compound 10 µM, first compound 0.0949 µM
[10] = second compound 10 µM, first compound 0.3 µM
[11] = second compound 10 µM, first compound 0.949 µM
[12] = second compound 10 µM, first compound 3 µM
[13] = second compound 31.6 µM, first compound 0.0949 µM
[14] = second compound 31.6 µM, first compound 0.3 µM
[15] = second compound 31.6 µM, first compound 0.949 µM
[16] = second compound 31.6 µM, first compound 3 µM
[17] = second compound 100 µM, first compound 0.0949 µM
[18] = second compound 100 µM, first compound 0.3 µM
[19] = second compound 100 µM, first compound 0.949 µM
[20] = second compound 100 µM, first compound 3 µM

| SMILES | IC50 (second compound 1 µM) | IC50 (second compound 3.16 µM) | IC50 (second compound 10 µM) | IC50 (second compound 31.6 µM) | IC50 (second compound 100 µM) | viability, T/C [1] | viability, T/C [2] | viability, T/C [3] | viability, T/C [4] | viability, T/C [5] | viability, T/C [6] | viability, T/C [7] | viability, T/C [8] | viability, T/C [9] | viability, T/C [10] | viability, T/C [11] | viability, T/C [12] | viability, T/C [13] | viability, T/C [14] | viability, T/C [15] | other results |
| --- | --- | --- | --- | --- | --- | --- | --- | --- | --- | --- | --- | --- | --- | --- | --- | --- | --- | --- | --- | --- | --- |
| Cn1ncnc1[C@H]1c2n[nH]c(=O)c3cc(F)cc(c23)N[C@@H]1c1ccc(F)cc1 + Cn1nnc2c(C(N)=O)ncn2c1=O | > 3 µM | > 3 µM | > 3 µM | > 3 µM | > 3 µM | 97.5% | 103% | 96.3% | 74.1% | 96.2% | 95.8% | 91.1% | 67.8% | 80.1% | 83.4% | 71.7% | 61.1% | 76% | 67% | 56.5% | viability, T/C (second compound 1 µM, first compound 0.00949 µM): 98.8%; viability, T/C (second compound 1 µM, first compound 0.03 µM): 98.9%; viability, T/C (second compound 3.16 µM, first compound 0.00949 µM): 99.7%; viability, T/C (second compound 3.16 µM, first compound 0.03 µM): 95%; viability, T/C (second compound 10 µM, first compound 0.00949 µM): 86.2%; viability, T/C (second compound 10 µM, first compound 0.03 µM): 89.6%; viability, T/C (second compound 31.6 µM, first compound 0.00949 µM): 78.5%; viability, T/C (second compound 31.6 µM, first compound 0.03 µM): 76.3%; viability, T/C [16]: 53.2%; viability, T/C (second compound 100 µM, first compound 0.00949 µM): 56.4%; viability, T/C (second compound 100 µM, first compound 0.03 µM): 50.8%; viability, T/C [17]: 52.2%; viability, T/C [18]: 58.7%; viability, T/C [19]: 54.5%; viability, T/C [20]: 50.8% |
| O=C(c1cc(Cc2n[nH]c(=O)c3ccccc23)ccc1F)N1CCN(C(=O)C2CC2)CC1 + Cn1nnc2c(C(N)=O)ncn2c1=O | > 30 µM | > 30 µM | > 30 µM | > 30 µM | 3.4 µM | 94.4% | 83.3% | 92.6% | 82.5% | 97.6% | 94.2% | 115% | 95.6% | 85.8% | 82.4% | 82.8% | 78.1% | 78.8% | 70.5% | 81.9% | viability, T/C (second compound 1 µM, first compound 9.49 µM): 95.6%; viability, T/C (second compound 1 µM, first compound 30 µM): 79.2%; outcome (second compound 3.16 µM, first compound 9.49 µM): inactive; viability, T/C (second compound 3.16 µM, first compound 30 µM): 76%; viability, T/C (second compound 10 µM, first compound 9.49 µM): 76.7%; viability, T/C (second compound 10 µM, first compound 30 µM): 75.5%; viability, T/C [16]: 72.3%; viability, T/C (second compound 31.6 µM, first compound 9.49 µM): 72.4%; viability, T/C (second compound 31.6 µM, first compound 30 µM): 58.6%; viability, T/C [17]: 68.7%; viability, T/C [18]: 61.1%; viability, T/C [19]: 51%; viability, T/C [20]: 54.3%; viability, T/C (second compound 100 µM, first compound 9.49 µM): 44.3%; viability, T/C (second compound 100 µM, first compound 30 µM): 49.1% |
